Biological target: T1, PhoDHS (deoxyhypusine synthase from Pyrococcus horikoshii OT3) (Pyrococcus horikoshii, UniProt O50105)
T1 construct: gene dys; full length 1-342, 39 kDa; N-terminal His6 tag with TEV site, tag cleaved; expressed in E. coli B834 (DE3) pRARE2; homotetramer about 130 kDa
Experiment: X-ray crystal structure ([…] Å); UV absorbance of NAD+ bound in solution
Type: binding
Conditions: NAD+ co-purified from E. coli, none added for the crystal; crystals at pH 4.8, 20 °C; UV at pH 8.0; site at the molA/molD interface

T1 sequence (O50105 whole entry): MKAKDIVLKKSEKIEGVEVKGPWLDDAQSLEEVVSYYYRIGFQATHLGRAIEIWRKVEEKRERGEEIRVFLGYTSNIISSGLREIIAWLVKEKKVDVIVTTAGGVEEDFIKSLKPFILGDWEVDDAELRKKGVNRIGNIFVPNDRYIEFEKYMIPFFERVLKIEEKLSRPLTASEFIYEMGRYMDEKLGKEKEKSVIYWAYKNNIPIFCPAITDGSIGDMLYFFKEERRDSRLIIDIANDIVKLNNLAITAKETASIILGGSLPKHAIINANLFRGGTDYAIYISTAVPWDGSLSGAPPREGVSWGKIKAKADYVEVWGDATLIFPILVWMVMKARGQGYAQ

SMILES: NC(=O)c1ccc[n+]([C@@H]2O[C@H](COP(=O)(O)OP(=O)(O)OC[C@H]3O[C@@H](n4cnc5c(N)ncnc54)[C@H](O)[C@@H]3O)[C@@H](O)[C@H]2O)c1 [NAD^+]
- X-ray crystal structure (2.2 Å); UV absorbance of NAD+ bound in solution: Two bulky electron density blocks shaped as NAD^+ were distinguished at the interface between molA

— article PMC7432094, “Flexible NAD^+ Binding in Deoxyhypusine Synthase Reflects the Dynamic Hypusine Modification of Translation Factor IF5A” (International Journal of Molecular Sciences, 2020)
